Reference: patent US20240173255A1, “Polymeric Micelle Coated with Chain-Like Poorly Soluble Drug, Preparation Method and Application” (Hangzhou Hanjing Biotechnology Co., Ltd, priority 2021, published 2024)
Converted amounts (≈) assume the structure as drawn.

Tests used:
[1] = Solubility of series A to E drugs in water and 10% Soluplus solution; type: physicochemical
From the text: The solubilities of the poorly soluble chain-like drugs of the series A to E according to the present disclosure in water and a 10% Soluplus solution are shown in Table 2.

[2] = Stability test in blood; type: in vitro ADME; conditions: 37° C., 2 h, FIG. 4
Experimental: Taking the polymeric micelle prepared according to Example 2 as an example: in a 96-well plate, 10 μL of the polymeric micelle was added, then 190 μL of blood was added and shaken quickly to be uniform. At 37° C., a resulting mixture was taken out at preset time points of 5 min, 30 min, 60 min, and 120 min separately, and centrifuged at 3,000 rpm for 10 min to separate a plasma layer (upper layer) and a red blood cell layer (lower layer), each 100 μL. The plasma and red blood cell samples were treated using an organic solvent extraction method, and a concentration of CPD14 molecules in the samples was quantified and analyzed using HPLC (gradient method), while CPD14 molecules not entrapped by Soluplus were used as a control.

[3] = tested on: mouse liver cancer H22 cells; assay: Cancer cell inhibition test (EZMTT), H22; type: cell-based; conditions: 5 days culture
Experimental: (§1) Taking the polymeric micelle prepared according to Example 2 as an example: the polymeric micelle was added to a 96-well plate, and 1,000 each of […] lung cancer A549 cells and mouse liver cancer H22 cells were added to each well.

[4] = tested on: mouse lung cancer A549 cells; assay: Cancer cell inhibition test (EZMTT), A549; type: cell-based; conditions: 5 days culture
Experimental: as §1

[5] = Bioavailability test (pharmacokinetics) in ICR mice; type: in vivo, mouse; conditions: 10 mg/kg tail vein injection
Experimental: 36 Institute of Cancer Research (ICR) mice weighing about 20 g were randomly divided into 2 groups, with 18 mice in each group. The mice all were separately administered using a CPD14 injection without Soluplus entrapment prepared according to Example 2 and the polymeric micelle prepared according to Example 2 in the same concentration, at a dose of 10 mg/kg by tail vein injection. Blood was collected at 0.003 h, 0.17 h, 0.5 h, 1 h, 2 h, 4 h, 8 h, 12 h, and 24 h after administration, and a plasma concentration of CPD14 was measured after treating the whole blood or plasma.

[6] = tested on: H22 mouse liver cancer subcutaneous tumor transplants; assay: Treatment test on subcutaneous tumor transplants in mice; type: in vivo; conditions: ICR mice, 20 mg/kg tail vein once a day for 10 days, tumors removed on 11th day
Experimental: 30 ICR mice weighing about 20 g were randomly divided into 3 groups, with 10 mice in each group. Liver cancer H22 cells were inoculated subcutaneously into the right armpit of mice. The next day, mice in Group 1 were injected with CPD14 injection without Soluplus prepared according to Example 2 at 20 mg/kg through the tail vein; mice in Group 2 waere injected with the polymeric micelle prepared according to Example 2 at 20 mg/kg through the tail vein; and mice in Group 3 were injected with the Soluplus blank micelle without drug at 20 mg/kg through the tail vein. The mice were injected once a day for 10 consecutive days, and the body weight of the mice was recorded and the status of the mice was observed every day. On the 11th day, the tumors of the mice were removed and measured.

COc1ccc2[se]n(CCCCCCn3[se]c4ccc(O)cc4c3=O)c(=O)c2c1 [CPD14]
Solubility in 10% Soluplus ([1]; 10% Soluplus solution): >1000 µg/mL
Solubility in water ([1]; water): 10 µg/mL (≈ 19.1 µM)
stability rate in blood [2]: significantly lower than that of the polymeric micelle
IC50 [3]: 510 ± 40 nM
IC50 [4]: 490 ± 70 nM
AUC0 h→24 h [5]: 9600 ± 1100 ng·h/mL
CL [5]: 17 ± 2 mL/min/kg
Cmax [5]: 6600 ± 700 ng/mL
T1/2β [5]: 102 ± 0.6 min
Tmax [5]: 1.98 min
Tumor weight of H22 tumor transplant [6]: 2.15 ± 0.05 g
